Measurements published in US5536848A, “Bioactive acetogenins and derivatives” (Purdue Research Foundation, priority 1994, dated 1996).
≈ marks a conversion by molar mass, not a printed value. Entries after “also recorded” stand apart in the source; their conditions may differ. Like-named read-outs stand apart in the source and are kept apart here.

Columns and labels:
[1] = tested on: brine shrimp (Artemia salina Leach); assay: Brine shrimp lethality test (BST); format: in vivo; conditions: for LC50: Artemia salina, read-out: BST LC50
Procedure: (§1) The brine shrimp (Artemia salina Leach) test (BST) was performed as modified to determine LC50 values in μg/ml. Seven-day in vitro cytotoxicity tests against human tumor cell lines were carried out at the Purdue Cancer Center, using standard protocols for A-549 (human lung carcinoma), MCF-7 (human breast carcinoma) and HT-29 (human colon carcinoma) with adriamycin as a positive control. The reported ED50 values in μg/ml (Table 5) were tabulated from the same run in order to facilitate comparison for the SAR's.
(§2) Bioassays. The brine shrimp (Artemia salina Leach) test (BST) was performed as modified. Zhao et al., Phytochemistry, 33, p. 1065 (1993). Seven-day in vitro cytotoxicity tests against human tumor cell lines were carried out at the Purdue Cancer Center, using standard protocols for A-549 (human lung carcinoma), Gu, Z. M.; Fang, X.-P.; Miesbauer, L. R., Smith, D. L.; and McLaughlin, J. L., 30, 31, and 32-Hydroxybullatacinones: Bioactive Terminally-Hydroxylated Annonaceous Acetogenins from Annona bullata., J. Nat. Prod., 1993, 56, 870-876; MCF-7 (human breast carcinoma) McLaughlin, J. L., Chang, C.-J., and Smith, D. L., Simple Bench-Top Bioassays (Brine Shrimp and Potato Discs) for the Discoveries of Plant Antitumor Compounds: A Review of Recent Progress. In Kinghorn, A. D., Balandrin, J. (Eds): "Human Medicinal Agents from Plants", ACS Symposium Series, Washington, D.C., American Chemical Society, 1993, pp. 112-137; and HT-29 (human colon carcinoma), Mclaughlin, J.L., Chang, C.-J., Smith, D.L., "'Bench-Top' Bioassays for the Discovery of Bioactive Natural Products: An Update", in Rahman, Atta-ur- (Ed): "Studies in Natural Product Chemistry", Vol. 9, Amsterdam, Elsevier, 1991, pp. 383-409, with adriamycin as a positive control. The reported values (Table IV) were tabulated from the same run in order to facilitate comparison for the SAR's.
(§3) Bioassay. The extracts, fractions, and isolates were routinely evaluated for lethality to brine shrimp larvae (BST). Cytotoxicities against human solid tumor cells were measured at the Purdue Cell Culture Laboratory, Purdue Cancer Center, for the A-549 lung carcinoma, MCF-7 breast carcinoma, and HT-29 colon adenocarcinoma.
(§4) The brine shrimp lethality test (BST), on newly hatched naupleii, was performed in our laboratory as previously described. McLaughlin, Methods in Plant Biochemistry, Vol. 6, Hostettmann, Academic Press, London, pp. 1-33 (1991). Seven day cytotoxicities against human solid tumor cells were measured at the Cell Culture Laboratory, Purdue Cancer Center, for the A-549 lung carcinoma, MCF-7 breast carcinoma, and HT-29 colon adenocarcinoma. The respiratory functions of rat liver mitochondria (RMB) were measured polarographically by determination of their rates of oxygen consumption after the addition of acetogenins or their derivatives.

rat liver mitochondria = assay: Rat mitochondrial bioassay (RMB), inhibition of oxygen uptake; format: biochemical; conditions: for RMB IC50: Table 17, oxygen consumption of rat liver mitochondria, parent and acetal derivative in the same run
Procedure: as §4
The oxidative phosphorylation pathway (or electron transport chain) is responsible for oxidizing NADH to NAD^+ and producing ATP from ADP and phosphate within the mitochondria. There are five enzyme complexes in this pathway: NADH-ubiquinone reductase (complex I), succinate-ubiquinone reductase (complex II), ubiquinone-cytochrome c reductase (complex III), cytochrome c oxidase (complex IV) and the F0 F1 -ATPase complex (complex V). The end point of the oxidative phosphorylation pathway is the reduction of oxygen (O2) to water in the mitochondria (thus, it is also called respiration), coupled with the synthesis of ATP by complex V. State 4 respiration is the oxidation of substrates in the absence of a phosphate acceptor (e.g., ADP). State 3 respiration occurs when a phosphate acceptor is present and oxygen utilization increases. The ratio of State 3 respiration to State 4 respiration is the respiratory control ratio (RCR).
The process of respiration can be measured by using an oxygen electrode to detect the amount of oxygen present in the assay cell. If respiration is occurring normally, the concentration of oxygen should slowly decrease as it is reduced to water. However, if there is some type of inhibition of oxidative phosphorylation occurring, the oxygen level will no longer decrease at the same rate. This rate of oxygen usage can be visualized by a chart recorder connected to the oxygen electrode. At normal respiration,a decreasing baseline slope will be established. During inhibition, however, the baseline slope should decrease (i.e., the slope will move closer to zero), since the oxygen present is no longer being reduced. In other words, the oxygen concentration in the assay cell is no longer decreasing at the same rate as in normal respiration. Furthermore, inhibition sites at specific complexes can be determined by competitive inhibition studies. This is accomplished by addition of a known inhibitor of, e.g., complex I, followed by the new respiration-inhibiting compound. […] This can be verified by trying inhibitors at other sites and by reversing the order, i.e., adding the new compound and then the known inhibitor.
The method for isolating rat liver mitochondria essentially followed the published methodology. Ahammadsahib et al., Life Sciences, 53, pgs. 1113-1120 (1993). The isolation buffer used for the isolation of mitochondria from rat liver consisted of 4 mM Tris-HC1, 0.5 mM EDTA, and 250 mM sucrose at a pH of 7.4. The isolation buffer was kept at refrigeration temperature at all times by storing on ice during the whole procedure. The rats were supplied by Sprague-Dawley, were male, and weighed approximately 300-320 grams. They were sacrificed with carbon dioxide, and the livers were removed and immediately placed in the isolation buffer on ice. The livers were then rinsed with several washings of cold buffer, cut into pieces, and homogenized. The homogenates were then centrifuged (Sorvall Superspeed RC2-B, 4° C) for 10 minutes at approximately 2000 rpms; the supernatant was next centrifuged for 20 minutes at approximately 9000 rpms. The pellet was reserved and resuspended in 2 ml of assay buffer with a glass pipet. The assay buffer consisted of 100 mM KC1, 5 mM KH2 PO4, 1 mM EDTA, 5 mM glutamate, 1 mM malate, and 20 mM Tris-HCl at a pH of 7.4 and was stored at room temperature. […]

[2] = tested on: A-549 (human lung carcinoma); assay: Seven-day in vitro cytotoxicity, A-549; format: cell-based; conditions: A549, 168 h
Procedure: as §1, §2, §3, §4

[3] = tested on: MCF-7 (human breast carcinoma); assay: Seven-day in vitro cytotoxicity, MCF-7; format: cell-based; conditions: MCF7, 168 h
Procedure: as §1, §2, §3, §4

[4] = Table 17, seven day cytotoxicity, same run, read-out: A-549 ED50
[5] = Table 17, seven day cytotoxicity, same run, read-out: MCF-7 ED50
[6] = read-out: MCF-7 ED50, Table 17, seven day cytotoxicity, same run
[7] = read-out: MCF-7 LC50, Table 12, same run

| SMILES | LC50 ([1]; Table 17, same run) [µg/mL] | IC50 [3, 5] [ng/mL] | RMB IC50 (rat liver mitochondria) [n moles/Lt/mg protein] | also measured |
| --- | --- | --- | --- | --- |
| CCCCC(O)CCCCCC(O)C1CCC(C2CCC(C(O)CCCCCCCCCCCCC3=CC(C)OC3=O)O2)O1 (centres unmarked) [Compound 2] |  |  |  | LC50 ([1]; Table 5, brine shrimp larvae): 0.006 µg/mL (≈ 9.63 nM); mitochondrial inhibition (rat liver mitochondria; rat liver mitochondria, result in words, listed as bullanin (2)): high activity; also recorded: slightly higher potencies than bullatacin |
| CCCCCCCCCCC(O)C1CCC(C2CCC(C(O)CCCCC(O)CCCCCCCC3=CC(C)OC3=O)O2)O1 (centres unmarked) [Compound 3, Asimin] |  |  |  | BST LC50 ([1]; Table 5, brine shrimp larvae): 4.6 ng/mL |
| CCCCCCC(O)CCCC(O)C1CCC(C2CCC(C(O)CCCCCCCCCCCCC3=CC(C)OC3=O)O2)O1 (centres unmarked) [Compound 4, Asiminacin] |  |  |  | LC50 ([1]; Table 5, brine shrimp larvae): 0.0057 µg/mL (≈ 9.15 nM) |
| CCCCCC(O)CCCCC(O)C1CCC(C2CCC(C(O)CCCCCCCCCCCCC3=CC(C)OC3=O)O2)O1 (centres unmarked) [Compound 5, Asiminecin] |  |  |  | LC50 ([1]; Table 5, brine shrimp larvae): 0.0049 µg/mL (≈ 7.87 nM); IC50 ([2]; read-out: A-549 LC50): 0.000329 ng/mL (≈ 0.000528 nM) |
| CCCCCCCCCCCCCC[C@@H](O)[C@H]1CC[C@H]([C@H](O)CC[C@H](O)CCCCC[C@@H](O)CC2=C[C@H](C)OC2=O)O1 [Compound 8, Goniothalamicin, reference compound] | 37 (≈ 62000 nM) | 0.00573 (≈ 0.0096 nM) | 554.8 | IC50 [2, 4]: 0.00711 ng/mL (≈ 0.0119 nM) |
| CCCCCCCCCCCCCC[C@@H](O)[C@H](O)CC[C@H](O)[C@@H]1CC[C@@H](CCCCC[C@@H](O)CC2=C[C@H](C)OC2=O)O1 [Compound 10, Gigantetrocin A, reference compound] | 0.6 (≈ 1010 nM) | 0.355 (≈ 0.595 nM) | 287.1 | IC50 [2, 4]: 4.52e-05 ng/mL (≈ 7.57e-05 nM) |
| CCCCCCCCCCCCCC[C@@H](O)[C@H]1CC[C@@H]([C@@H]2CC[C@@H](CCCCC[C@@H](O)CC3=C[C@H](C)OC3=O)O2)OCO1 [Compound 11, 14,17-formaldehyde acetal derivative] |  |  |  | IC50 ([2]; read-out: A-549 ED50): 0.798 ng/mL (≈ 1.31 nM); IC50 [3, 6]: 461 ng/mL (≈ 757 nM) |
| CCCCCC[C@H](O)CCC[C@H](O)[C@H]1CC[C@H]([C@H](O)CC[C@H](O)[C@@H]2CC[C@@H](CCCCCCCCCC3=C[C@H](C)OC3=O)O2)O1 [Compound 13, Squamostatin A, reference compound] | 2.8 (≈ 4380 nM) |  |  | IC50 ([2]; read-out: A-549 ED50): 0.268 ng/mL (≈ 0.419 nM); IC50 [3, 6]: 0.072 ng/mL (≈ 0.113 nM) |
| CCCCCC[C@H](O)CCC[C@H](O)[C@H]1CC[C@H]([C@H]2CC[C@@H]([C@@H]3CC[C@@H](CCCCCCCCCC4=C[C@H](C)OC4=O)O3)OCO2)O1 [Compound 15, 16,19-mono-formaldehyde acetal derivative] | 0.007 (≈ 10.8 nM) | 1090 (≈ 1670 nM) |  |  |
| CCCCCC[C@H](O)CCC[C@H](O)[C@H]1CC[C@H]([C@H]2CC[C@H]([C@H](O)CCCCCCCCCCCCC3=C[C@H](C)OC3=O)O2)O1 [Compound 16, Squamocin, reference compound] | 0.02 (≈ 32.1 nM) |  | 21.5 | IC50 [3, 6]: 30.3 ng/mL (≈ 48.6 nM) |
| CCCCCC[C@H]1CCC[C@@H](C2CCC(C3CCC(C(O)CCCCCCCCCCCCC4=CC(C)OC4=O)O3)O2)OCO1 (some centres unmarked) [Compound 17, 24,28-formaldehyde acetal derivative of squamocin] | 0.0044 (≈ 6.93 nM) | 695 (≈ 1090 nM) | 421.1 |  |
| CCCCCCCCCC[C@H](O)[C@H]1CC[C@H]([C@H]2CC[C@@H]([C@@H]3CC[C@@H](CCCCCCC[C@@H](O)CC4=C[C@H](C)OC4=O)O3)OCO2)O1 [Compound 19, 16,19-Formaldehyde acetal derivative of bullatalicin] | 0.049 (≈ 75.3 nM) | 18.5 (≈ 28.4 nM) | 29.8 |  |
| CCCCCCCCCC[C@@H](O)[C@H]1CC[C@H]([C@H](O)CC[C@H](O)[C@@H]2CC[C@@H](CCCCCCC[C@@H](O)CC3=C[C@H](C)OC3=O)O2)O1 [Compound 20, Bullatanocin, reference compound] | 0.43 (≈ 673 nM) | 24.2 (≈ 37.9 nM) | 50.7 |  |
| CCCCCCCCCC[C@@H](O)[C@H]1CC[C@H]([C@H]2CC[C@@H]([C@@H]3CC[C@@H](CCCCCCC[C@@H](O)CC4=C[C@H](C)OC4=O)O3)OCO2)O1 [Compound 21, 16,19-Formaldehyde acetal derivative of bullatanocin] | 0.0065 (≈ 9.99 nM) | 222 (≈ 341 nM) | 11.3 |  |
| CCCCCCCCCCCCC(O)C1CCC(C(O)CCC(O)C2CCC(CCCCCC(O)CC3=CC(C)OC3=O)O2)O1 (stereo not drawn) [Compound 22, C-18/21-cis-gigantecin] |  |  |  | LC50 ([1]; Table 12): 0.249 µg/mL (≈ 390 nM) |
| CCCCCCCCCC[C@H](O)[C@H]1CC[C@H]([C@H]2CC[C@@H]([C@@H]3CC[C@@H](CCCCCCC[C@@H]4CC(CC(C)=O)C(=O)O4)O3)OCO2)O1 (stereo partly drawn) [Compound 27, 16,19-Formaldehyde acetal derivatives of (2,4-cis and trans)-bullatalicinones] | 0.038 (≈ 58.4 nM) | 63.9 (≈ 98.2 nM) | 20.5 |  |
| CCCCCCCCCCCC/C=C\CCC(O)C(O)CCC(O)C1CCC(CCCCCC(O)CC2=CC(C)OC2=O)O1 (centres unmarked) [Compound 28, Gigantetronenin, reference compound] |  |  |  | LC50 ([1]; Table 12): 10.4 µg/mL (≈ 16700 nM); IC50 [3, 7]: 1.49e-05 ng/mL (≈ 2.39e-05 nM) |
| CCCCCCCCCCCC[C@@H](O)[C@H]1CC[C@H]([C@H](O)CC[C@H](O)[C@@H]2CC[C@@H](CCCCC[C@@H](O)CC3=C[C@H](C)OC3=O)O2)O1 [Compound 29, Gigantecin] |  |  |  | LC50 ([1]; Table 12): 0.0344 µg/mL (≈ 53.8 nM); IC50 ([2]; read-out: A-549 LC50): < 10 ng/mL; IC50 [3, 7]: 0.1 ng/mL (≈ 0.157 nM) |
| C=C(C)[C@H]1Cc2c(ccc3c2O[C@@H]2COc4cc(OC)c(OC)cc4[C@@H]2C3=O)O1 [Rotenone, rotenone, reference compound] |  |  | 34.8 | LC50 [1]: 0.0123 µg/mL (≈ 31.2 nM) |
